# Results: article PMC6172251, “Two Engineered OBPs with opposite temperature-dependent affinities towards 1-aminoanthracene” (Scientific Reports, 2018)
# Experiments:
# [1] = biological target: T1, truncated OBP (tOBP), engineered from OBP-I (Sus scrofa, UniProt P81245, F44A/F66A); test: direct fluorescence titration with 1-AMA (ex […] nm, em […] nm), […] °C; Kd […] at […] °C; type: binding
# T1 construct: OBP-I with deletion of the first 16 residues of the N-terminal and F44A and F66A; His-tag at N-terminal
# T1 sequence (P81245 17-157 F44A/F66A): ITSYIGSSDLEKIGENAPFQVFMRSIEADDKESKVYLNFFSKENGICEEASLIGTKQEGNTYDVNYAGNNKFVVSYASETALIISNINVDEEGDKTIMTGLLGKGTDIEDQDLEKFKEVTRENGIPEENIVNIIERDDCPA
# [2] = biological target: T2, OBP::GQ20::SP-DS3, engineered from OBP-I (Sus scrofa, UniProt P81245); test: as above; type: binding
# T2 construct: fusion of OBP-I with a linker of 20 glycine-glutamine repeats (GQ20) and the anchor peptide SP-DS3 ([…]); His-tag at N-terminal
# T2 sequence (P81245 1-157): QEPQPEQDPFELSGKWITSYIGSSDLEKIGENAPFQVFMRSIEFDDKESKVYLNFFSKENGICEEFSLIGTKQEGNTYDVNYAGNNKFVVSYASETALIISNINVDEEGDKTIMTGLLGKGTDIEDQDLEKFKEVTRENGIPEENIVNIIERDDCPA
compound,measurement,setting,value
"Nc1cccc2cc3ccccc3cc12 [1-AMA, 1-aminoanthracene]",Kd,[1],450 nM
same,Kd,[2],580 nM
